In article PMC6892255, “Identification of a potent small-molecule inhibitor of bacterial DNA repair that potentiates quinolone antibiotic activity in methicillin-resistant Staphylococcus aureus^” (Bioorganic & Medicinal Chemistry, 2019):
Entries after “also recorded” stand apart in the source; their conditions may differ.

Tests used:
[1] = test system: methicillin-resistant S. aureus (MRSA, USA300 JE2); experiment: MIC / growth inhibition assay (end-point OD600), single agent; type: cell-based, Staphylococcus aureus
Description: Minimum inhibitory concentration (MIC) assays were used to evaluate the antimicrobial activity of compounds against Gram-negative (E. coli) and Gram-positive (S. aureus) bacteria. […] Gram-positive bacteria are more susceptible to small-molecule penetration, and compounds were therefore assessed for growth inhibition against the S. aureus SH1000 strain.
Methicillin-resistant S. aureus (MRSA) is a multi-drug resistant bacterium responsible for a large number of nosocomial infections.[34] The emergence of community associated (CA)-MRSA capable of infection of healthy individuals highlights its significance and clinical relevance.[35]
2.1. Biological and biochemical methods
Bacterial strains and culture conditions
Strains utilized in the present study are detailed in Table S1. All strains used were cultivated on Mueller Hinton Agar (MHA) and grown to stationary-phase in Mueller Hinton Broth (MHB) at 37 °C for 16 h, with shaking at 180 r.p.m.
Minimum inhibitory concentration (MIC) assays
MIC assays were performed in 96 well plates and MICs were determined in accordance with the broth microdilution protocol.4 Strains grown to stationary-phase in MHB were adjusted to 5 x 10^5 colony-forming units (CFU)/mL in fresh MHB (100 µL/well) supplemented with DMSO to ensure a constant concentration of 0.5% (v/v) DMSO across all experiments. Where […]
or H2O2 (200 μM). Test compounds were prepared as two-fold serial dilutions. Cells were […]
as the lowest concentration with no visible bacterial growth, and the optical density at 600 nm (OD600) was recorded. OD600 measurements were background corrected against no-inocula control and normalized to DMSO control for dose-response analysis. The EC50 value mean and SEM were calculated from individual EC50 values from three biological replicates. […]

[2] = test system: methicillin-resistant S. aureus (MRSA, USA300 JE2); experiment: Ciprofloxacin (CFX) potentiation in MRSA growth inhibition assay; type: cell-based, Staphylococcus aureus
[3] = test system: AddAB (StrepII-AddA and His6-AddB); experiment: Recombinant AddAB pulldown with compound-functionalized Sepharose; type: binding; details: E. coli lysate co-expressing StrepII-AddA and His6-AddB, Western blot
Description: A SOS reporter system was generated by transformation of JE2 cells with a plasmid containing GFP under control of the recA promoter. Activation of the SOS response in these cells results in expression of GFP which can be monitored by fluorescence intensity. […] This decrease is indicative of inhibition of the SOS response during cell death, and consistent with the proposed inhibition of AddAB-mediated DNA repair pathways. Finally, to provide additional evidence that inhibition of the bacterial DNA repair pathway by IMP-1700 (10) occurred through inhibition of AddAB, a target pulldown was conducted. IMP-1700 (10) was coupled with N-Boc-ethylenediamine to afford amide 19, followed by removal of the Boc group in 4 M HCl/dioxane and purification using strong cation exchange resin. The resulting free amine 20 was coupled to N-hydroxysuccinimide (NHS)-activated Sepharose resin at 4 °C overnight (Figure 2C), and the remaining NHS sites quenched in Tris buffer. SoluBL21 competent E. coli were transformed with pET28b^+ containing StrepII-tagged AddA and hexahistidine-tagged AddB, and expression induced overnight at 16 °C. Cells were lysed via sonication and the total lysate incubated with IMP-1700 (10)-functionalized or control Sepharose beads which had been treated with DMSO then Tris-quenched. Beads were washed three times with lysis buffer and bound protein eluted with SDS-PAGE sample buffer, followed by PAGE separation. […]
agar (LA) supplemented with kanamycin (50 μg/mL). Liquid cultures were grown at 37 °C with shaking at 180 r.p.m until an OD600 of 0.5 was reached, at which point cultures were cooled to 16 °C. Protein expression was induced by addition of isopropyl β-D-thiogalactoside (1 mM), followed by incubation for 20 h at 16 °C with shaking. Cells were collected by centrifugation (4,000 × g, 5 min) and stored at -20 °C.
Cells were re-suspended in lysis buffer (50 mM Tris-HCl, 150 mM NaCl, pH 7.5) and lysed on ice by sonication (2 min, 5 s on-off cycle, 40% amplitude) using a Vibra-cell sonicator (Sonics). […]

With `O=C(O)c1cn(C2CC2)c2cc(N3CCN(C(=S)Nc4ccc(C(F)(F)F)cc4)CC3)c(F)cc2c1=O` [Compound 10] the EC50 ([1]; Staphylococcus aureus, 18 h, read-out: EC50 S. aureus (USA300 JE2) Compound only, single agent, end-point OD600 after 18 h) was 3.8 ± 0.5 µM, the “fold less potent against JE2 compared to SH1000” value ([1]; ratio of single-agent EC50 values) was over 20 fold and the “fold increase in potency against JE2 in the presence of CFX compared to single agent” value ([2]; CFX 9.4 µM) was about 650 fold. For the same molecule, the “fold increase in potency compared to 1 for potentiation against JE2 by CFX” value ([2]; JE2 + CFX) was about 160 fold, the “fold increase in potency of para- over meta-substituted analogue, potentiation by CFX” value ([2]; JE2 + CFX, 4 vs 1, 10 vs 7, 14 vs 13) was about 25 fold and the EC50 ([2]; read-out: EC50 S. aureus (USA300 JE2) Compound + CFX (9.4 μM), in presence of half-MIC CFX (9.4 μM)) was 5.9 ± 0.6 nM. For the same molecule, the “Pulldown of AddA and AddB by compound-functionalized Sepharose” value [3] was “allows co-isolation of the complex” and the “Pulldown of AddA and AddB by compound-functionalized Sepharose” value ([3]; listed as IMP-1700) was “both AddA and AddB subunits were pulled down; also recorded: successfully pulled down”.
